Experimental findings from a melting point compilation (Tetko et al.; mined from patent text by program, amines drawn as free bases though some values may be those of a salt) are described below.

By melting point is commonly meant the temperature of the solid-liquid transition.

`O=c1nc(-c2cccc(S(=O)CCCc3ccccc3)n2)sc2ccccc12` (stereo unspecified) had a melting point of 164 to 166 °C.
Then `COc1c(OCC(F)(F)F)ccnc1CSc1nc2ccc(C(F)(F)F)cc2[nH]1`, with 80 to 82 °C; and `CS(=O)(=O)OCC(c1ccccc1)c1ccccc1`, with 101 to 102 °C; and `CC1Oc2c(cc(Cl)cc2C(=O)O)NC1=O` (stereo unspecified), with 319 to 320 °C.
With `COC(=O)c1ccc2c(Br)n[nH]c2c1` the figure was 186 to 189 °C.
With `O=C1c2ccc(Cl)cc2C(O)N1CCO[N+](=O)[O-]` (stereo unspecified) the figure was 116 to 118 °C.
`CCOC(=O)C(CC(=O)c1ccc(Oc2ccc(Cl)cc2)cc1)SC(C)=O` (stereo unspecified) came in with a melting point of 75.5 to 77 °C.
The molecule `Cc1nc2ccc(Cl)cc2s1` had a melting point of 85 to 86 °C.
As to `Oc1cccc2c1ccn2CCCCCc1ccccc1`, the melting point was 109 to 110 °C.
Take `Cc1nc2ccccc2nc1S(=O)Cc1ccccn1` (stereo unspecified): the melting point is 85 to 88 °C.
`CC(=O)COc1ccc([N+](=O)[O-])cc1` yielded a melting point of 77 to 78 °C.
`CCCCOc1cc2cc(CO)c(CO)c(-c3ccnc(NN)c3)c2cc1OC` displayed a melting point of 93 to 97 °C.
`Cc1cc(-n2ccc(OCCC3CC3)cc2=O)sc1C(=O)NCc1ccccc1` showed a melting point of 134 to 136 °C.
`O=c1[nH]c(=O)n(COc2ccccc2)cc1F` gave a melting point of 150 °C.
For `CC(=O)N1c2ccc(-c3ccc(C#N)cc3)cc2C(Nc2ccc(F)cc2)CC1C` (stereo unspecified), the melting point came to 140 °C.
With `CCC(=Nc1ccc2c(c1)C(=O)c1ccc(N=C(CC)N3CCCCC3)cc1C2=O)N1CCCCC1` the figure was 183 to 185 °C.
Turning to `O=C1c2cc(Cl)ccc2N(N2CCCCC2)C2=NCCN12`, the melting point was in the range of 192 to 193 °C.
Turning to `C#CC[C@H](c1nc2cccnc2c(=O)n1Nc1ccccc1)N(CCCNC(=O)OCc1ccccc1)C(=O)c1cccc(Cl)c1F`, the melting point lay in the range of 100 to 102 °C.
As to `C#Cc1cc(Nc2ncnc3cnc(F)cc23)ccc1F`, the melting point was 223 to 226 °C.
In turn, `O=c1ccoc2cc(OCCCCl)ccc12` returned a melting point of 72 to 73 °C.
Molecule `COc1c(C)c(C)c(OC)c(CN2C(=O)[C@H]3CCC[C@H]3Nc3ccccc32)c1C` (relative stereo) had a melting point of 175 to 176 °C.
Molecule `CCC(CC)Nc1cc(C)nc(Oc2c(C)cc(C)cc2C)c1C(=O)OC` gave a melting point of 98 to 102 °C.
Then `O=C(O)CCCc1c(-c2ccc(F)cc2)[nH]c2ccc(-c3ccc(O)cc3)cc12`, with 180 to 183 °C.
Then `CC(C)(/C=C\Cl)C(=O)Nc1ccc(Cl)cc1`, with 127 to 128 °C; and `CC(CC#N)(C(=O)NCC#N)c1ccc(C(=O)Nc2cn3cc(Cl)ccc3n2)cc1` (stereo unspecified), with 268 to 269 °C; and `COC(=O)Cn1cnc2c(C)c[nH]c2c1=O`, with 233 to 235 °C.
For `Cc1ccc(-c2ccc(Sc3ccccc3)s2)cc1C`, the melting point lay within 77 to 78 °C.
With `CCCCc1ncc(/C=C(\Cc2ccccc2)C(=O)O)n1Cc1c(F)cccc1Cl` the figure was 204 to 206 °C; with `Cc1ccc(S(=O)(=O)c2ccc(C(F)(F)F)cc2NC(=O)N[C@@H](Cc2ccc(NC(=O)c3c(Cl)cccc3Cl)cc2)C(=O)O)cc1`, 233 °C.
With `COCC(=O)O[C@@H]1[C@@H](c2ccccc2)Nc2c(ccn3c(C)c(C)nc23)[C@@H]1OC` the figure was 73 to 75 °C.
With `CC(CCNC(=O)c1ccc(Oc2ccc(F)cc2)o1)N(O)C(N)=O` (stereo unspecified) the figure was 161 to 163 °C; with `CCN(C(C)C)C(C)CC1=C(c2ccc(OC)cc2)CCCNC1=O` (stereo unspecified), 64 to 66 °C; with `O=c1ccn(-c2cccc(C(F)(F)F)c2)nc1-c1conc1-c1ccccc1`, 217 to 219 °C.
As for `Cc1cc(-c2ccc(S(N)(=O)=O)cc2)n(-c2ccc(C)c(C)c2)c1`, the melting point fell in the range of 118 to 120 °C.
Then `NS(=O)(=O)c1ncccc1S`, with 102 to 104 °C; and `COc1cc(CCC(=O)CC(=O)c2ccc3ccccc3c2)ccc1O`, with 101 to 102 °C; and `O=C(NCC1CCCC1)c1ccc2[nH]ccc2c1`, with 110 to 112 °C.
In turn, `O=C(Nc1ccc(F)nc1)N1CCN(c2ccnc(-c3cccc(F)c3F)n2)CC1` had a melting point of 192 to 193 °C.
As for `CCC(CC)Nc1cc(C)nc(Cl)c1[N+](=O)[O-]`, the melting point was 82 to 84 °C.
For `CCCOc1ccc(-c2ccc3c(c2)C=C(C(=O)Nc2ccc(CN(C)C4CCOCC4)cc2)CCS3(=O)=O)cc1OCC`, the melting point lay within 203 to 205 °C.
With `CC1c2cc(C(C)(C)C)cc(C(C)(C)C)c2OP(Cl)Oc2c1cc(C(C)(C)C)cc2C(C)(C)C` (stereo unspecified) the figure was 194 to 198 °C; with `CSc1nc(O)c(C=O)c(O)n1`, above 250 °C.
`CC(C)(Oc1ccc(Cl)cc1)C(=O)Cn1cncn1` came in with a melting point of 101 to 103 °C.
In turn, `COC(=O)c1cc(Br)c(C=O)o1` came in with a melting point of 83 to 84 °C.
Then `CSC1NC(=O)N(c2ccc(C)cc2)C(=O)N1`, with 276 to 278 °C; and `CCN(CC)c1ccc(/C=C/c2ccccc2F)cc1`, with 78 to 79 °C; and `O=[N+]([O-])c1c(NCCC23CCCN2CCC3)cnc2ccccc12`, with 106 to 108 °C.
The molecule `O=C(O)CCNC(=O)C(CS)C(F)(F)F` (stereo unspecified) registered a melting point of 108 to 110 °C.
The molecule `CC(=O)Nc1ccc(C(=O)c2cc(-c3cccnc3)c(N3CCOCC3)s2)cc1` had a melting point of 120 °C.
As to `CSc1ccc(Nc2cc(-c3nnc(C(C)(C)OC(C)=O)o3)ccn2)cc1`, the melting point lay within 142 to 143 °C.
Molecule `CN1CCN(CCCNC(=S)NC2CCCCC2)CC1` showed a melting point of 109 to 111 °C.
`CSc1cccc(SC)c1S(=O)(=O)NC(C)(C)C`: the melting point was in the range of 182 to 185 °C.
On to `CC1(C)c2cc(OS(C)(=O)=O)ccc2OC1Cl` (stereo unspecified), for which the melting point was in the range of 59 to 61 °C.
Then `CC#CCOc1ccc(S(=O)(=O)C(C(=O)NO)C2CCNCC2)cc1` (stereo unspecified), with 140 °C.
Then `Cc1cc(Cc2cnc(NCCCCc3ncc(Br)cc3C)[nH]c2=O)cnc1C`, with 126 to 128 °C.
For `CCC1CC(=O)N(Cc2ccc(C(=O)NC3CCCC3)cc2)N=C1c1ccc(OC)c(OC2CCCC2)c1` (stereo unspecified), the melting point was found to be 73 °C.
Consider `CC[C@H](C)[C@H](NC(=O)O[C@@H](CC(C)C)C(=O)OCc1ccccc1)C(N)=O`, for which the melting point lay within 140 to 141 °C.
`CN1CCN(c2ccc(-c3cnc4c(c3)N(S(=O)(=O)c3ccccc3Cl)CCN4)cn2)CC1` came in with a melting point of 164 to 165 °C.
Then `CC(C)c1nn(-c2ccc(C(F)(F)F)cn2)cc1COc1cccc(CC(=O)O)c1`, with 114 to 115 °C; and `CC1Oc2ccccc2-n2cnc(-c3noc(C4CC4)n3)c21` (stereo unspecified), with 162 °C.
With `Cc1cnc(N2CCC(c3ccc(S(N)(=O)=O)cc3)CC2)n1C` the figure was 256 to 257 °C; with `O=S1CCc2nc(N3CCN(c4ccccc4)CC3)nc(Nc3cccc(Cl)c3)c21` (stereo unspecified), 230 to 231 °C.
Then `CSC1C(=O)Nc2c(C(=O)c3ccc(F)cc3)cccc21` (stereo unspecified), with 165 to 168 °C; and `Cn1nnc(Cc2ccc(NC(=O)/C=C/c3cnn(C)c3-c3ccc(F)cc3)cc2)n1`, with 159 to 161 °C.
Take `CN1Cc2c(Br)ncn2-c2ccc(F)cc2C1=O`: the melting point worked out at 200 °C.
In the case of `Oc1ccc2c(c1)CCCC(c1ccccc1)=C2c1ccc(OCCCCCCl)cc1`, the melting point was in the range of 200 to 202 °C.
In the case of `CS(=O)(=O)c1ccc(-c2ccc(I)n2-c2ccc(F)cc2)cc1`, the melting point was 174 to 176 °C.
With `O=C(Nc1cccc(S(=O)(=O)N2CCCC2CO)c1)c1cnn2c(C3CC3)cc(-c3ccc(Cl)cc3)nc12` (stereo unspecified), the melting point lay within 180 to 182 °C.
With `NNC(=O)c1ccccc1Nc1cccc(C(F)(F)F)c1` the figure was 134 to 135 °C.
`CON=C(C(=O)O)c1cccc(OC)c1` came in with a melting point of 97 to 98 °C.
The molecule `NNC(=S)NN=Cc1ccco1` returned a melting point of 186 to 187 °C.
`O=C1c2ccccc2S(=O)(=O)N1CCCCN1CCC2(CC1)Cc1ccccc1O2`: the melting point fell in the range of 98 to 100 °C.
With `Brc1cnc(-c2ccc(OCc3ccccc3)cc2)nc1` the figure was 153 to 155 °C; with `CC(C)(C)OCC(O)CN` (stereo unspecified), 41 to 43 °C; with `Cc1nc(Sc2ncccc2C(=O)O)sc1CC(=O)O`, 233 to 235 °C.
Then `Oc1cccc2oc(Cc3cccc(C(F)(F)F)c3)nc12`, with 157 to 158 °C; and `CN(C)c1ccc(-c2cccc3c2C2(COc4cc5c(cc42)OCO5)C(=O)N3Cc2ccc(C(F)(F)F)o2)cn1` (stereo unspecified), with 174 to 176 °C; and `Cc1nc2ccc(F)cc2[nH]1`, with 177 to 178 °C.
`Cn1nc2c(-c3ccc(Cl)cc3Cl)cccc2c1C(=O)c1ncn[nH]1` gave a melting point of 284 to 285 °C.
Then `CCN(CC)c1ccc(C2(N(c3ccccc3)c3ccccc3)OC(=O)c3nccnc32)cc1` (stereo unspecified), with 140 to 143 °C; and `CCOC(=O)C1=C(COCC(C)(O)Cc2ccccn2)NC(C)=C(C(=O)OC)C1c1cccc(Cl)c1Cl` (stereo unspecified), with 163 to 164 °C.
The molecule `CS(=O)(=O)OCCCc1cccc(OCc2coc(/C=C/c3ccccc3)n2)c1` displayed a melting point of 75 to 76 °C.
Then `CC(C)(C)C(=O)c1cn(COCC[Si](C)(C)C)c2ncc(-c3ccc4c(ccn4Cc4ccccn4)c3)nc12`, with 194 to 196 °C.
With `COc1cc(O)ccc1CCCc1ccc(O)cc1` the figure was 88 to 89 °C; with `Nc1ccc(NC(=S)NC2CCCCC2)cn1`, 147 to 149 °C.
`CCOC(=O)C1=C(C)NC(C)=C(C(=O)OCC)C1c1ccccc1/C=C/c1ccccc1` displayed a melting point of 187 to 188 °C.
Molecule `Cn1cc(S(C)=O)c(=O)c2ccsc21` (stereo unspecified) displayed a melting point of 150 to 152 °C.
Then `CCCC[C@H](NC(=O)[C@H](CCC(=O)O)NC(=O)OCc1ccccc1)C(=O)CSCc1ccco1`, with 67 to 71 °C.
With `CC1(C)Cc2cccc(OCC3CO3)c2O1` (stereo unspecified) the figure was 51 to 52 °C.
With `CCCCOc1ccc(S(=O)(=O)NC(=O)c2ccc(C(=O)OC)nc2)cc1` the figure was 174 to 176 °C.
In turn, `CN1CC(C(=O)CN2CCCCC2)CC2c3cccc4[nH]cc(c34)CC21` (stereo unspecified) displayed a melting point of 168 to 170 °C.
